Source: US5661001A, “High molecular weight desulphatohirudin” (Ciba-Geigy Corporation, priority 1993, dated 1997)

Legend:
α-thrombin = α-thrombin (Homo sapiens, UniProt P00734); assay: antithrombin activity: inhibition of α-thrombin digesting Chromozym TH; type: biochemical
Method: The amino acid composition is determined by the dimethylaminoazobenzene sulfonyl (dabsyl) chloride method (Chang et al. Anal. Biochem. (1991), 197, 52-58.), which allows direct quantization of the disulfide content. The amino acid sequence was analyzed by an Applied Biosystem Inc. 470A protein sequencer. The antithrombin activity of desulphatohirudin derivatives was assessed by their ability to inhibit α-thrombin from digesting Chromozym TH (Boehringer Mannheim), using the described protocol (Stone et al. Biochemistry (1986), 25, 4622-4628; Chatrenet et al. J. Biol. Chem. (1992), 267, 3038-3043). The molecular weight of desulphatohirudin is […], determined by the laser desorption ionization mass spectrometry using a home-built instrument (Boernsen et al. Chimia (1990), 44, 412-416).

plasma APTT = assay: ex vivo plasma APTT after subcutaneous administration in the rat; conditions: s.c. 1 ml/kg, dimer 4.5 mg/ml, HV1 3.0 mg/ml, mean±SEM, n=5
Method: (APTT=activated partial thrombin time)
[Cys^33 ]HV1--[Cys^33 ]HV1 dimer is dissolved in saline to a concentration of 4.5 mg/ml and unmodified hirudin-monomer is dissolved in saline to a concentration of 3.0 mg/ml (these doses are chosen based on the in vitro results in order to achieve a similar effect on APTT at 1 h). Solutions are administered subcutaneously to rats (1 ml/kg). At various times after administration, blood (2 ml) is collected by cardiac puncture directly into one tenth volume trisodium titrate solution (3.8% w/v) and immediately mixed. The anticoagulated blood is centrifuged at 2500 g for 20 min to obtain platelet free plasma.
Plasma samples are assayed for APTT using standard methods on the Instrumentation Laboratory ACL 300R coagulometer. The method for APTT determination utilizes the Instrumentation Laboratory ellagic acid test kit--plasma (50 μl) is incubated with ellagic acid activating reagent (50 μl) at 37° C. for 5 min prior to the addition of calcium chloride solution (50 μl of 25 mM solution) and the time taken for the plasma clot is recorded automatically, the end point being determined optically by the light scattered when the fibrin network formed (see table 1).
The results are expressed as a multiple of the means control APTT value and presented as mean±standard error of the mean (n=5).

human thrombin = human thrombin (Homo sapiens, UniProt P00734); assay: kinetic parameters for inhibition of human thrombin (progress-curve experiments, D-Phe-pipecolyl-Arg-p-nitroanilide); type: biochemical; conditions: substrate 100 μM, enzyme 20 pM; weighted means of two determinations
Method: The kinetic parameters of the [Cys^33 ]HV1--[Cys^33 ]HV1 dimer are determined from progress-curve experiments as described by Stone et al. Biochemistry (1986), 25, 4622-4628 and Braun et al. Biochemistry, (1988), 27, 6517-6522. For each determination, the formation of p-nitroaniline from D-Phe-pipecolyl-Arg-p-nitroanilide is monitored in six assays, one in absence of inhibitor and the others with different concentrations of inhibitor ranging from 10 to 60 pM for the [Cys^33 ]HV1--[Cys^33 ]HV1 dimer. The substrat concentration is 100 μM and the enzyme concentration is 20 pM.
The kinetic parameters are determined twice and values given in table 2 represent the weightened means of the estimates.

potency of thrombin inhibition, monomer versus dimer (α-thrombin; comparison of Cys33 monomer and dimer)	Substance	thrombin inhibition (inhibitory activity, equal weight basis) (α-thrombin; 1 nM desulphatohirudin, 1.5 nM α-thrombin)	APTT as multiple of the mean control APTT value (plasma APTT; 0 hours)	APTT as multiple of the mean control APTT value (plasma APTT; 1 hour)	APTT as multiple of the mean control APTT value (plasma APTT; 4 hours)	APTT as multiple of the mean control APTT value (plasma APTT; 6 hours)	10^8 k1 (human thrombin)
nearly indistinguishable (±3%)	Cys^33 monomer: mutant of recombinant desulphatohirudin HV1 with cysteine replacing aspartic acid at position 33 (SEQ ID NO: 8)	–	–	–	–	–	–
–	HV1: unmodified desulphatohirudin variant 1 monomer, used as comparator	82±5%	1.00 ± 0.02 multiple of control APTT	2.44 ± 0.07 multiple of control APTT	1.43 ± 0.05 multiple of control APTT	0.95 ± 0.02 multiple of control APTT	1.37 ± 0.03 M^-1 s^-1
